# Measurements reported in patent US12503510B2, “Small shedding blocking agents” (BIOND BIOLOGICS LTD., priority 2019, dated 2025).
# Like-named read-outs stand apart in the source and are kept apart here.
# B1: CD80-Fc: extracellular domain of CD80 fused to an Fc moiety (protein)
# chain: VIHVTKEVKEVATLSCGHNVSVEELAQTRIYWQKEKKMVLTMMSGDMNIWPEYKNRTIFDITNNLSIVILALRPSDEGTYECVVLKYEKDAFKREHLAEVTLSVKADFPTPSISDFEIPTSNIRRIICSTSGGFPEPHLSWLENGEELNAINTTVSQDPETELYAVSSKLDFNMTTNHSFMCLIKYGHLRVNQTFNWNTTKQEHFPDN
# modifications: left off: a dimerising Fc or GST
# notes: extracellular domain of CD80 fused to an Fc moiety
# What was measured:
# SCC-25 cells = experiment: Co-culture of SCC-25 cancer cell line with monocytes in trans-well assay; format: cell-based, human
# Method: Co-culture of SCC-25 cancer cell line with monocytes in trans-well based assay—4×10^4 SCC-25 cells were plated on the bottom of 24 well plate with 1×10^5 monocytes placed on cell culture insert (Millipore, Cat. No. MCHT241148) with or without indicated treatments for 4 days in starvation media without serum.
# Next, cells of the head and neck cancer cell line SCC-25 were incubated either alone or with monocytes in a trans-well assay. SCC-25 cells grown alone were administered IL-6 as a positive control, and indeed cell proliferation, as measured by MTT (FIG. 9C, upper) and as measured by % confluency (FIG. 9C, lower), was increased.
# [1] = test system: autologous monocytes and CD3 T cells; experiment: Autologous monocytes CD3 MLR with CMV peptide; format: cell-based, human
# Method: The mixed cells were stimulated for 5 days with CMV peptide (0.5 μg/mL) with and without increasing concentrations of recombinant human sCD28.
# The MLR was run as before only with and without sCD28 and with and without an anti-PD1 antibody (MK3475, 5 μg/mL) (FIG. 8B).
# human PBMCs [2] = experiment: SEB or CMV stimulated PBMCs with anti-PD1 and soluble CD28; format: cell-based
# human PBMCs [3] = experiment: Lymphocyte clustering of SEB stimulated PBMCs (IncuCyte); format: cell-based; details: SEB 1 ng/mL
# Method: Next, human PBMCs were stimulated with SEB (1 ng/mL) without or in the presence of recombinant human CD28. Human IgG was used as control. Lymphocyte clustering, a hallmark of immune activation was monitored using the IncuCyte® S3 Live-Cell, with pictures taken every 12 hours. […] It is well established that during in-vitro immune response antigen presenting cells (APC) cluster with one another and with other cell types, and clustering is essential for the antigen specific activation of resting lymphocytes.
# isolated PBMCs = experiment: CMV stimulated PBMC with constant sCD28 and CD80-Fc titration; format: cell-based, human; details: CMV peptide 3 days
# [4] = test system: isolated CD3 human T cells; experiment: T cells stimulation with OKT3 and CD80-Fc, IFN gamma; format: cell-based; details: OKT3 2 μg/mL
# Method: T cells stimulation with OKT3—0.1×10^6 isolated CD3 T cells (from healthy donors) were stimulated with indicated amount of anti-CD3 clone OKT3 for 48-72 hr at 37° C. When stated recombinant human CD80-Fc (2 μg/mL, R&D system) was added in soluble form. Antibodies or VHHs to CD28 or controls were added at the indicated concentration in soluble form.
# CD80 is one of the two main ligands for mCD28 along with CD86. The extracellular domain of CD80 fused to an Fc moiety has been used as an immune stimulatory molecule and is under investigation as a cancer therapy. In order to examine the effect of sCD28 on CD80-Fc efficacy, isolated CD3 human T cells were stimulated with plate bound anti-CD3 antibody (OKT3, 2 μg/mL) in the presence of 2 μg/mL soluble recombinant human CD80-Fc.
# [5] = test system: H22 hepatocellular carcinoma cells; experiment: H22 syngeneic mouse model; format: in vivo; details: Balb/c mice, H22 allograft, with anti-PD-1
# isolated human monocytes = experiment: Stimulation of monocytes with recombinant human CD28 (IDO, PD-L1, PD-L2); format: cell-based; details: IFNγ 1000 U/mL, recombinant human CD28 10 μg/mL
# Method: Stimulation of monocytes with recombinant human CD28—1.5×10^6 monocytes were plated at 24 well plate in RPMI medium with […] IFN gamma (R&D system, Cat. No. 285-IF) in the presence of recombinant human CD28 at the indicated concentrations for 48 hrs. The generated cell populations were tested for the indicated phenotypes by FACS analysis of relevant markers (IDO, PD-L1 and PD-L2) and by analysis of secretion of characteristic cytokines (IL-6).
# The enzyme indoleamine 2,3-dioxygenase (IDO) has been implicated in immune modulation through its ability to catabolize the essential amino acid Tryptophan. It is expressed by different immune cells and also by many cancer cells. Tryptophan shortage inhibits T lymphocytes maturation and proliferation, while Kynurenine, the end product of tryptophan catabolism, is also known as immunosuppressive metabolite that promotes immune tolerance in various physiological and pathophysiological conditions. To test the effect of sCD28 on IDO, isolated human monocytes were stimulated for 48 hr with IFNγ (1000 U/mL) in the presence of control human IgG or with recombinant human CD28 (10 μg/mL). After incubation, the monocytes were stained intracellularly for human IDO (FIG. 7E). To facilitate intracellular staining the cells were fixed and permeabilized with BD Cytofix/Cytoperm Buffer Kit.
# In order to elucidate the mechanism by which sCD28 inhibits the pro-activation effect of anti-PD-1 therapy, the expression of PD-1 ligands on immune cells in the presence of sCD28 was examined. Isolated human monocytes were stimulated for 48 hours with IFNγ (1000 U/mL) in the presence of control human IgG (10 μg/mL) or with recombinant human CD28 (10 μg/mL). After incubation the monocytes were stained for PD-L1 (FIG. 8C, left) and PD-L2 (FIG. 8C, right).
# PBMC of cancer patients = experiment: SEB stimulated PBMC of cancer patients with sCD28 and MK-3475; format: cell-based, human; details: SEB 5 ng/mL, 3 days
# human PBMCs [6] = experiment: CMV stimulation of PBMCs with ectopic recombinant human CD28 or CTLA-4, cytokine ELISA/multiplex; format: cell-based; details: CMV 0.5 μg/mL
# human PBMCs [7] = experiment: Soluble CD28 generation in SEB or CMV stimulated PBMCs, human CD28 ELISA; format: cell-based; details: SEB 1 ng/mL; inhibitor 0.01-1 μM
# Method: Protease Inhibitors—Protease inhibitors were added at the indicated concentrations at the start of each experiment. In week long assays another portion of the inhibitors was added after 3 days at the final concentration. Protease inhibitors used are TAPI-1 (Cayman, Cat. No. 18505), GM6001 (Santa Cruz, Cat. No. SC-203979), TMI-1 (Sigma, Cat. No. PZ0336) and GI254023X (Sigma, Cat. No. SML0789). Where mentioned the protease cocktail was composed with a mixture of TAPI-1 and GM6001 at equimolar ratio.
# human PBMCs [8] = test system: human PBMCs
# [9] = CMV peptide 0.5 μg/mL, 5 days, increasing sCD28
molecule,measurement,setting,value
IL-6: cytokine given to SCC-25 cells as a positive control [reference compound],cell proliferation (MTT and % confluency),"SCC-25 cells; SCC-25 cells grown alone, positive control",increased
"Pembrolizumab [MK-3475, reference compound]",IFN gamma secretion,[1]; MK3475 5 μg/mL,increased IFN gamma secretion
same,TGF beta secretion,[1]; MK3475 5 μg/mL,decreased TGF beta secretion
same,proinflammatory cytokine secretion (IFN gamma and IL-2),"human PBMCs [2]; MK3475 5 μg/mL, 3 days",increased proinflammatory cytokine secretion
sCD28: recombinant human CD28 lacking the transmembrane and cytoplasmic domains,cell proliferation (MTT and % confluency),SCC-25 cells; coculture with monocytes,by far the greatest increase
same,lymphocyte cluster formation,human PBMCs [3],diminish the amount and size of cluster formation
same,CD80-Fc needed for immune response in presence of sCD28,isolated PBMCs,an increased amount of CD80-Fc was required
same,effect on CD80-Fc secondary activation,"[4]; constant CD80-Fc, titration of sCD28",counteracted the secondary activation effect of the CD80-Fc
same,IFN gamma secretion,[1]; [9],inhibit IFN gamma secretion
same,IL-1B secretion,[1]; [9],increasing the secretion
same,IL-10 secretion,[1]; [9],increasing the secretion
same,TGF beta secretion,[1]; [9],increasing the secretion
same,effect of MK-3475 in the presence of sCD28,[1]; MK3475 5 μg/mL with sCD28,significantly reduced
same,effect on anti-PD-1 therapy,[5],nearly completely abrogated in two of the mice
same,PD-L1 expression on monocytes,isolated human monocytes; 48 hours,upregulated
same,PD-L2 expression on monocytes,isolated human monocytes; 48 hours,upregulated
same,IDO expression in monocytes,isolated human monocytes; 48 hr,strongly enhanced IDO expression
same,effect on MK-3475,PBMC of cancer patients; combination,rendered the effect of MK-3475 nonexistent
same,concentration of human IFN gamma in the supernatant,PBMC of cancer patients; with or without MK-3475,greatly reduced
same,effect on MK-3475 immune activation,human PBMCs [2]; sCD28 2 and 10 μg/mL combined with MK3475 5 μg/mL,abrogated completely this immune activation effect
same,IFN gamma secretion,human PBMCs [6],dose-dependent inhibition of IFN gamma secretion
same,IL-6 secretion,human PBMCs [6],increase IL-6 cytokine secretion
same,interleukin-10 secretion,human PBMCs [6],elevation
CNC(=O)[C@@H](NC(=O)[C@H](CCCc1ccccc1)[C@H](C)N(O)C=O)C(C)(C)C [GI254023X],sCD28 release from activated immune cells,human PBMCs [7],almost complete inhibition of sCD28 release
same,viability of the immune cells (MTT),"human PBMCs [8]; SEB 1 ng/mL, with vs without ADAM inhibitor",no significant difference
CC#CCOc1ccc(S(=O)(=O)N2CCSC(C)(C)[C@@H]2C(=O)NO)cc1 [TMI-1],viability of the immune cells (MTT),human PBMCs [8],no significant difference
B1,IFN gamma secretion,[4]; CD80-Fc 2 μg/mL,increased IFN gamma secretion
